In the NIST ThermoML archive (doi:10.1021/acs.jced.8b00975):
Numbers after ± are expanded uncertainties.

Assay: xn = mol fraction of the nth substance listed
Conditions: Liquid, Vibrating tube method

C=C(C)C(=O)OCCN(C)C [2-(dimethylamino)ethyl methylpropenoate] + CCCO
mass density [kg/m3]
Conditions | 100 kPa | 5000 kPa | 10000 kPa | 15000 kPa | 20000 kPa | 25000 kPa | 30000 kPa | 35000 kPa
293.15 K, x1 = 0.03 | 813.1 ± 0.52 | 817.13 ± 0.52 | 820.85 ± 0.53 | 824.33 ± 0.55 | 827.64 ± 0.56 | 830.83 ± 0.57 | 833.97 ± 0.58 | 837.12 ± 0.59
293.15 K, x1 = 0.0598 | 822.05 ± 0.52 | 825.95 ± 0.52 | 829.65 ± 0.53 | 833.15 ± 0.54 | 836.5 ± 0.55 | 839.72 ± 0.57 | 842.82 ± 0.58 | 845.84 ± 0.59
293.15 K, x1 = 0.0998 | 832.86 ± 0.52 | 836.81 ± 0.52 | 840.49 ± 0.53 | 843.94 ± 0.54 | 847.22 ± 0.55 | 850.38 ± 0.56 | 853.46 ± 0.57 | 856.5 ± 0.58
293.15 K, x1 = 0.1502 | 845.14 ± 0.52 | 849.07 ± 0.52 | 852.65 ± 0.53 | 856.05 ± 0.54 | 859.3 ± 0.55 | 862.47 ± 0.56 | 865.58 ± 0.57 | 868.68 ± 0.58
293.15 K, x1 = 0.2003 | 855.86 ± 0.52 | 859.68 ± 0.52 | 863.26 ± 0.53 | 866.65 ± 0.54 | 869.89 ± 0.55 | 873.06 ± 0.55 | 876.18 ± 0.56 | 879.33 ± 0.57
293.15 K, x1 = 0.2502 | 865.17 ± 0.52 | 868.95 ± 0.52 | 872.5 ± 0.53 | 875.88 ± 0.54 | 879.12 ± 0.54 | 882.27 ± 0.55 | 885.37 ± 0.56 | 888.47 ± 0.57
293.15 K, x1 = 0.3013 | 873.68 ± 0.52 | 877.48 ± 0.52 | 881.04 ± 0.53 | 884.41 ± 0.54 | 887.65 ± 0.54 | 890.79 ± 0.55 | 893.88 ± 0.56 | 896.98 ± 0.56
293.15 K, x1 = 0.3992 | 887.54 ± 0.52 | 891.31 ± 0.53 | 894.85 ± 0.53 | 898.21 ± 0.54 | 901.43 ± 0.54 | 904.58 ± 0.55 | 907.69 ± 0.55 | 910.81 ± 0.56
293.15 K, x1 = 0.4482 | 893.36 ± 0.52 | 897.13 ± 0.53 | 900.67 ± 0.53 | 904.04 ± 0.54 | 907.28 ± 0.54 | 910.43 ± 0.55 | 913.53 ± 0.55 | 916.64 ± 0.56
293.15 K, x1 = 0.4998 | 898.97 ± 0.52 | 902.77 ± 0.53 | 906.35 ± 0.53 | 909.73 ± 0.54 | 912.96 ± 0.54 | 916.08 ± 0.55 | 919.13 ± 0.55 | 922.15 ± 0.56
293.15 K, x1 = 0.5509 | 903.96 ± 0.52 | 907.77 ± 0.53 | 911.33 ± 0.53 | 914.67 ± 0.54 | 917.88 ± 0.54 | 921 ± 0.55 | 924.1 ± 0.55 | 927.23 ± 0.56
293.15 K, x1 = 0.5986 | 908.27 ± 0.53 | 912.04 ± 0.53 | 915.56 ± 0.53 | 918.89 ± 0.54 | 922.08 ± 0.54 | 925.2 ± 0.55 | 928.3 ± 0.55 | 931.47 ± 0.55
293.15 K, x1 = 0.699 | 916.1 ± 0.53 | 919.83 ± 0.53 | 923.35 ± 0.54 | 926.69 ± 0.54 | 929.91 ± 0.55 | 933.05 ± 0.55 | 936.14 ± 0.55 | 939.24 ± 0.56
293.15 K, x1 = 0.7994 | 922.7 ± 0.53 | 926.51 ± 0.54 | 930.05 ± 0.54 | 933.38 ± 0.54 | 936.55 ± 0.55 | 939.65 ± 0.55 | 942.73 ± 0.55 | 945.86 ± 0.56
293.15 K, x1 = 0.8519 | 925.73 ± 0.53 | 929.5 ± 0.54 | 933.03 ± 0.54 | 936.39 ± 0.55 | 939.61 ± 0.55 | 942.75 ± 0.55 | 945.87 ± 0.56 | 949.02 ± 0.56
293.15 K, x1 = 0.8992 | 928.25 ± 0.54 | 931.98 ± 0.54 | 935.56 ± 0.55 | 938.89 ± 0.55 | 942.14 ± 0.55 | 945.3 ± 0.56 | 948.43 ± 0.56 | 951.54 ± 0.56
293.15 K, x1 = 0.9284 | 929.69 ± 0.54 | 933.42 ± 0.54 | 936.97 ± 0.55 | 940.36 ± 0.55 | 943.63 ± 0.55 | 946.83 ± 0.56 | 949.98 ± 0.56 | 953.12 ± 0.56
293.15 K, x1 = 0.9587 | 931.16 ± 0.54 | 934.9 ± 0.54 | 938.45 ± 0.55 | 941.84 ± 0.55 | 945.11 ± 0.56 | 948.29 ± 0.56 | 951.43 ± 0.56 | 954.55 ± 0.56
303.15 K, x1 = 0.0307 | 805.44 ± 0.52 | 809.69 ± 0.53 | 813.63 ± 0.54 | 817.3 ± 0.55 | – | – | – | –
303.15 K, x1 = 0.0599 | 813.96 ± 0.52 | 818.16 ± 0.53 | 822.06 ± 0.53 | 825.7 ± 0.55 | – | – | – | –
303.15 K, x1 = 0.1003 | 824.72 ± 0.52 | 828.9 ± 0.52 | 832.79 ± 0.53 | 836.41 ± 0.54 | – | – | – | –
303.15 K, x1 = 0.201 | 847.03 ± 0.52 | 851.16 ± 0.53 | 854.99 ± 0.53 | – | – | – | – | –
303.15 K, x1 = 0.3004 | 864.34 ± 0.52 | 868.29 ± 0.53 | 872.06 ± 0.53 | – | – | – | – | –
303.15 K, x1 = 0.4007 | 878.29 ± 0.52 | 882.23 ± 0.53 | 885.98 ± 0.53 | – | – | – | – | –
303.15 K, x1 = 0.4507 | 884.12 ± 0.52 | 888.05 ± 0.53 | 891.79 ± 0.53 | – | – | – | – | –
303.15 K, x1 = 0.4985 | 889.33 ± 0.52 | 893.25 ± 0.53 | 896.99 ± 0.54 | – | – | – | – | –
303.15 K, x1 = 0.5535 | 894.64 ± 0.53 | 898.56 ± 0.53 | 902.3 ± 0.54 | – | – | – | – | –
303.15 K, x1 = 0.5907 | 897.88 ± 0.53 | 901.87 ± 0.53 | 905.63 ± 0.54 | – | – | – | – | –
303.15 K, x1 = 0.7009 | 906.35 ± 0.53 | 910.27 ± 0.53 | 914.01 ± 0.54 | – | – | – | – | –
303.15 K, x1 = 0.8 | 912.95 ± 0.53 | 916.83 ± 0.54 | 920.56 ± 0.54 | – | – | – | – | –
303.15 K, x1 = 0.9043 | 918.6 ± 0.54 | 922.52 ± 0.54 | 926.3 ± 0.55 | – | – | – | – | –
303.15 K, x1 = 0.9269 | 919.6 ± 0.54 | 923.57 ± 0.54 | 927.36 ± 0.55 | – | – | – | – | –
303.15 K, x1 = 0.9551 | 921.07 ± 0.54 | 924.99 ± 0.55 | 928.75 ± 0.55 | – | – | – | – | –
